The test system of the first assay is HSV-2 G strain. In words: HSV-2 Antiviral Assay (Vero cells, cell viability). It counts as cell-based. Conditions: Human alphaherpesvirus 2, Vero, 120 h, Vero cells, 160 TCID50 HSV-2 G strain, 5 days, cell viability. The method, boiled down:
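Antiviral readout is survival of infected Vero cells: after 5 days at 37 °C with 160 TCID50 HSV-2 G strain plus serially diluted compound (8 points, 3-fold, 0.5% DMSO), WST-8 was added for 3 h and absorbance measured at 460/620 nm. Cells seeded at 1.0×10^4 per well.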
`Cc1nc(N2CC(CO)CN(c3ccc(-c4cc(F)ccc4F)cc3)C2=O)sc1S(N)(=O)=O` (centres unmarked) [Compound 356]: the EC50 was below 100 nM.

`COC1CN(c2ccc(-c3cc(F)ccc3F)cc2)C(=O)N(c2nc(C)c(S(N)(=O)=O)s2)C1` (centres unmarked) [Compound 357, 2-(3-(2′,5′-difluoro-[1,1′-biphenyl]-4-yl)-5-methoxy-2-oxotetrahydropyrimidin-1(2H)-yl)-4-methylthiazole-5-sulfonamide] came in with an EC50 of 1000 to 5000 nM.

Regarding `Cc1nc(N2CC(C#N)CN(c3ccc(-c4cc(F)ccc4F)cc3)C2=O)sc1S(N)(=O)=O` (centres unmarked) [Compound 360, 2-(5-cyano-3-(2′,5′-difluoro-[1,1′-biphenyl]-4-yl)-2-oxotetrahydropyrimidin-1(2H)-yl)-4-methylthiazole-5-sulfonamide], the half-maximal effective concentration (EC50) is below 100 nM.

`COc1c(F)cc(F)cc1-c1ccc(N2CC(F)CN(c3nc(C)c(S(N)(=O)=O)s3)C2=O)cc1` (centres unmarked) [Compound 366]: the 50% effective concentration (EC50) is below 100 nM.

`Cc1nc(N2CC(F)(F)CN(c3ccc(-c4cc(F)ccc4F)cc3)C2=O)sc1S(N)(=O)=O` [Compound 367]: the EC50 is below 100 nM.

In the case of `Cc1nc(N2CC(C(F)(F)F)CN(c3ccc(-c4cc(F)ccc4F)cc3)C2=O)sc1S(N)(=O)=O` (centres unmarked) [Compound 368], the concentration for a half-maximal effect (EC50) is below 100 nM.

Compound `COc1c(F)cc(F)cc1-c1ccc(N2CC(C(F)(F)F)CN(c3nc(C)c(S(N)(=O)=O)s3)C2=O)cc1` (centres unmarked) [Compound 372] came in with a concentration for a half-maximal effect (EC50) below 100 nM.

Regarding `COc1c(F)cc(F)cc1-c1ccc(N2CC(F)(F)CN(c3nc(C)c(S(N)(=O)=O)s3)C2=O)cc1` [Compound 375], the EC50 was below 100 nM.

Consider `COc1ccc(F)cc1-c1ccc(N2CC3(COC3)CN(c3nc(C)c(S(N)(=O)=O)s3)C2=O)cc1` [Compound 378], for which the concentration giving a half-maximal response (EC50) was below 100 nM.

In turn, `Cc1nc(N2CC3(COC3)CN(c3ccc(-c4cc(F)ccn4)cc3)C2=O)sc1S(N)(=O)=O` [Compound 379] displayed a concentration giving a half-maximal response (EC50) below 100 nM.

`Cc1nc(N2CC(C(=O)O)CN(c3ccc(-c4cc(F)ccc4F)cc3)C2=O)sc1S(N)(=O)=O` (centres unmarked) [Compound 380]: the EC50 fell in the range of 1000 to 5000 nM.

`Cc1nc(N2CC(C(N)=O)CN(c3ccc(-c4cc(F)ccc4F)cc3)C2=O)sc1S(N)(=O)=O` (centres unmarked) [Compound 381] came in with a concentration for a half-maximal effect (EC50) of 100 to 1000 nM.

`COC(=O)C1CN(c2ccc(-c3cc(F)ccc3F)cc2)C(=O)N(c2nc(C)c(S(N)(=O)=O)s2)C1` (centres unmarked) [Compound 384] came in with an EC50 below 100 nM.

For `Cc1nc(N2CCCN(c3ccc(-c4cc(F)ccc4F)cc3)C2=O)sc1S(=O)(=O)NO` [Compound 385], the EC50 fell in the range of 100 to 1000 nM.

In turn, `CONS(=O)(=O)c1sc(N2CCCN(c3ccc(-c4cc(F)ccc4F)cc3)C2=O)nc1C` [Compound 386] had an EC50 below 100 nM.

Consider `COCCNS(=O)(=O)c1sc(N2CCCN(c3ccc(-c4cc(F)ccc4F)cc3)C2=O)nc1C` [Compound 387], for which the half-maximal effective concentration (EC50) is below 100 nM.

As for `Cc1nc(N2CCCN(c3ccc(-c4cc(F)ccc4F)cc3)C2=O)sc1S(=O)(=O)NCCO` [Compound 388, 2-(3-(2′,5′-difluoro-[1,1′-biphenyl]-4-yl)-2-oxotetrahydropyrimidin-1(2H)-yl)-N-(2-hydroxyethyl)-4-methylthiazole-5-sulfonamide], the EC50 was below 100 nM.

`Cc1nc(N2CCCN(c3ccc(-c4cc(F)ccc4F)cc3)C2=O)sc1S(=O)(=O)NCCCCO` [Compound 389] displayed an EC50 below 100 nM.

Consider `COCCCCNS(=O)(=O)c1sc(N2CCCN(c3ccc(-c4cc(F)ccc4F)cc3)C2=O)nc1C` [Compound 390], for which the concentration for a half-maximal effect (EC50) was below 100 nM.

In the case of `Cc1nc(N2CCCN(c3ccc(-c4cc(F)ccc4F)cc3)C2=O)sc1S(=O)(=O)NCCCF` [Compound 391], the EC50 is below 100 nM.

As for `Cc1nc(N2CCCN(c3ccc(-c4cc(F)ccc4F)cc3)C2=O)sc1S(=O)(=O)NCC(F)(F)CO` [Compound 392], the EC50 was below 100 nM.

On to `Cc1nc(N2CCCN(c3ccc(-c4cc(F)ccc4F)cc3)C2=O)sc1S(=O)(=O)NCCC(C)(C)O` [Compound 393], for which the EC50 is below 100 nM.

Compound `Cc1nc(N2CCCN(c3ccc(-c4cc(F)ccc4F)cc3)C2=O)sc1S(=O)(=O)NCC(C)CO` (centres unmarked) [Compound 394] yielded a concentration giving a half-maximal response (EC50) below 100 nM.

`Cc1nc(N2CCCN(c3ccc(-c4cc(F)ccc4F)cc3)C2=O)sc1S(=O)(=O)NC[C@@H](C)CO` [Compound 395] had a concentration giving a half-maximal response (EC50) below 100 nM.

`Cc1nc(N2CCCN(c3ccc(-c4cc(F)ccc4F)cc3)C2=O)sc1S(=O)(=O)NC[C@H](C)CO` [Compound 396]: the EC50 is below 100 nM.

Consider `Cc1nc(N2CCCN(c3ccc(-c4cc(F)ccc4F)cc3)C2=O)sc1S(=O)(=O)N1CCC(N)C1` (centres unmarked) [Compound 397], for which the concentration for a half-maximal effect (EC50) lay in the range of 100 to 1000 nM.

For `Cc1nc(N2CCCN(c3ccc(-c4cc(F)ccc4F)cc3)C2=O)sc1S(=O)(=O)N1CC[C@H](N)C1` [Compound 398], the EC50 was in the range of 100 to 1000 nM.

The compound `Cc1nc(N2CCCN(c3ccc(-c4cc(F)ccc4F)cc3)C2=O)sc1S(=O)(=O)N1CC[C@@H](N)C1` [Compound 399] returned an EC50 of 100 to 1000 nM.

With `Cc1nc(N2CCCN(c3ccc(-c4cc(F)ccc4F)cc3)C2=O)sc1S(=O)(=O)N[C@@H]1CC[C@@H](O)C1` [Compound 400], the EC50 was below 100 nM.

In turn, `Cc1nc(N2CCCN(c3ccc(-c4cc(F)ccc4F)cc3)C2=O)sc1S(=O)(=O)NC(C)(C)CO` [Compound 402] returned a concentration for a half-maximal effect (EC50) of 100 to 1000 nM.

Take `Cc1nc(N2CCCN(c3ccc(-c4cc(F)ccc4F)cc3)C2=O)sc1S(=O)(=O)N1CC2(COC2)C1` [Compound 403]: the EC50 is below 100 nM.

For the compound `Cc1nc(N2CCCN(c3ccc(-c4cc(F)ccc4F)cc3)C2=O)sc1S(=O)(=O)NCC1COC1` [Compound 404], the half-maximal effective concentration (EC50) was below 100 nM.

Turning to `Cc1nc(N2CCCN(c3ccc(-c4cc(F)ccc4F)cc3)C2=O)sc1S(=O)(=O)NN` [Compound 405], the EC50 was in the range of 100 to 1000 nM.

Consider `Cc1nc(N2CCCN(c3ccc(-c4cc(F)ccc4F)cc3)C2=O)sc1S(=O)(=O)Nc1ccccn1` [Compound 406], for which the concentration giving a half-maximal response (EC50) is below 100 nM.

`Cc1nc(N2CCCN(c3ccc(-c4cc(F)ccc4F)cc3)C2=O)sc1S(=O)(=O)Nc1ccc2cc[nH]c2c1` [Compound 407] returned a half-maximal effective concentration (EC50) of 100 to 1000 nM.

Compound `Cc1nc(N2CCCN(c3ccc(-c4cc(F)ccn4)cc3)C2=O)sc1S(=O)(=O)NC1CC1` [Compound 408] showed a half-maximal effective concentration (EC50) below 100 nM.

Compound `Cc1nc(N2CCCN(c3ccc(-c4ncccc4F)cc3)C2=O)sc1S(=O)(=O)NC1CC1` [Compound 409] showed an EC50 below 100 nM.

`Cc1nc(N2CCCN(c3ccc(-c4cccc(N)n4)cc3)C2=O)sc1S(=O)(=O)NC1CC1` [Compound 410] yielded a half-maximal effective concentration (EC50) below 100 nM.

For the compound `CNS(=O)(=O)c1sc(N2CCCN(c3ccc(-c4cccc5cc(N)ncc45)cc3)C2=O)nc1C` [Compound 411], the EC50 is below 100 nM.

`Cc1nc(N2CCCN(c3ccc(-c4ccccc4F)cc3)C2=O)sc1S(=O)(=O)C(F)F` [Compound 412, 1-(5-((difluoromethyl)sulfonyl)-4-methylthiazol-2-yl)-3-(2′-fluoro-[1,1′-biphenyl]-4-yl)tetrahydropyrimidin-2(1H)-one] gave a half-maximal effective concentration (EC50) of 100 to 1000 nM.

For the compound `Cc1nc(N2CC(F)CN(c3ccc(-c4cc(F)ccc4F)cc3)C2=O)sc1S(=O)(=O)NCCO` (centres unmarked) [Compound 413], the 50% effective concentration (EC50) was below 100 nM.

For `COCCCNS(=O)(=O)c1sc(N2CCCN(c3ccc(-c4cc(F)ccc4F)cc3)C2=O)nc1C` [Compound 416], the EC50 was below 100 nM.

In turn, `Cc1nc(N2CCCN(c3ccc(-c4cc(F)cc5nsnc45)cc3)C2=O)sc1S(=O)(=O)NCCCO` [Compound 418] gave a half-maximal effective concentration (EC50) below 100 nM.

As to `COCCCNS(=O)(=O)c1sc(N2CCCN(c3ccc(-c4cc(F)cc5nsnc45)cc3)C2=O)nc1C` [Compound 419], the EC50 was below 100 nM.

Consider `Cc1nc(N2CCCN(c3ccc(-c4cc(F)ccc4F)cc3)C2=O)sc1S(=O)(=O)NCCCCCCCCCCO` [Compound 420], for which the 50% effective concentration (EC50) is below 100 nM.

In turn, `COCCCCCCCCCCNS(=O)(=O)c1sc(N2CCCN(c3ccc(-c4cc(F)ccc4F)cc3)C2=O)nc1C` [Compound 421] had an EC50 below 100 nM.

Compound `COc1c(F)cc(F)cc1-c1ccc(N2CCCN(c3nc(C)c(S(=O)(=O)NCCCCCCCCCCO)s3)C2=O)cc1` [Compound 422] came in with an EC50 below 100 nM.

In turn, `CCCS(=N)(=O)c1sc(N2CCCN(c3ccc(-c4cc(F)cc(F)c4F)cc3)C2=O)nc1C` (centres unmarked) [Compound 423] gave a 50% effective concentration (EC50) below 100 nM.

`Cc1nc(N2CCCCN(c3ccc(-c4cccc5ncsc45)cc3)C2=O)sc1S(C)(=N)=O` (centres unmarked) [Compound 428]: the 50% effective concentration (EC50) was below 100 nM.

`Cc1nc(N2CC3(COC3)CN(c3ccc(-c4cc(F)ccc4F)cc3)C2=O)sc1S(C)(=N)=O` (centres unmarked) [Compound 431] gave an EC50 below 100 nM.

Consider `COc1ccc(F)cc1-c1ccc(N2CC3(COC3)CN(c3nc(C)c(S(C)(=O)=O)s3)C2=O)cc1` [Compound 435], for which the EC50 was below 100 nM.

`COc1c(F)cc(F)cc1-c1ccc(N2CCCN(c3nc(C(F)(F)F)c(S(N)(=O)=O)s3)C2=O)cc1` [Compound 437] registered a half-maximal effective concentration (EC50) below 100 nM.

As for `NS(=O)(=O)c1sc(N2CCCN(c3ccc(-c4cc(F)cc5nsnc45)cc3)C2=O)nc1C(F)(F)F` [Compound 438], the concentration for a half-maximal effect (EC50) was in the range of 1000 to 5000 nM.

On to `C#Cc1nc(N2CCCN(c3ccc(-c4cc(F)ccc4F)cc3)C2=O)sc1S(N)(=O)=O` [Compound 439], for which the 50% effective concentration (EC50) was below 100 nM.

Compound `NS(=O)(=O)c1sc(N2CCCN(c3ccc(-c4cc(F)ccc4F)cc3)C2=O)nc1CO` [Compound 440, 2-(3-(2′,5′-difluoro-[1,1′-biphenyl]-4-yl)-2-oxotetrahydropyrimidin-1(2H)-yl)-4-(hydroxymethyl)thiazole-5-sulfonamide] returned an EC50 below 100 nM.

The same assay, now with this note: Human alphaherpesvirus 2, Vero, 120 h, Vero cells, 5 days.
Consider `Cc1nc(N2CCN(c3ccc(-c4cc(F)cc5nsnc45)cc3)C2=O)sc1S(N)(=O)=O` [Example 314], for which the midpoint of the response, the EC50, lay at 28 nM. That is a double-digit nanomolar value.

Source of the values: patent publication US20260103471A1, “CYCLIC UREA THIAZOLYL COMPOUNDS FOR TREATMENT OF HSV” (Assembly Biosciences, Inc., priority 2022, published 2026).
